The assay relates to Puccinia recondita. Kind of assay: Protective activity against Puccinia recondita on wheat (brown rust of wheat). The note with it: 250 ppm, protective: wheat seedlings sprayed the day before inoculation, visual rating after a further 7 days; untreated plants 90% infected. It is filed as in vivo. The procedure: The respective active compound was prepared as a stock solution with 25 mg of active compound which was made up to 10 ml with a mixture of acetone and/or dimethyl sulfoxide (DMSO) and the emulsifier Uniperol® EL (wetting agent having emulsifying and dispersing action based on ethoxylated alkylphenols) in a volume ratio solvent/emulsifier of 99 to 1. The solution was then made up to 100 ml with water. This stock solution was diluted to the active compound concentration stated below using the solvent/emulsifier/water mixture described.
Leaves of potted wheat seedlings of the cultivar “Kanzler” were sprayed to runoff point with an aqueous suspension having the active compound concentration stated below. The next day, the treated plants were inoculated with a spore suspension of brown rust of wheat (Puccinia recondita). The plants were then placed in a chamber with high atmospheric humidity (90 to 95%) at 20 to 22° C. for 24 hours. During this time, the spores germinated and the germ tubes penetrated into the leaf tissue. The next day, the test plants were returned to the greenhouse and cultivated at temperatures between 20 and 22° C. and 65 to 70% relative atmospheric humidity for a further 7 days. The extent of the rust fungal development on the leaves was then determined visually.

On to `Cc1cc(-c2c(Cl)nc3ncnn3c2N[C@H](C)C(C)C)ccn1` [Example 59], for which the infection entry is on record as “no infection”.

The record behind these values is US20080227796A1, “7-Amino-6-Hetaryl-1,2,4-Triazolo[1,5-A]Pyrimidine Compounds and the Use Thereof for Controlling Pathogenic Fungi” (BASF Aktiengesellschaft, priority 2004, published 2008).
